Tests used:
neuropathic pain = experiment: Analgesic effect against neuropathic pain: L5/L6 spinal nerve ligation (Chung model), von Frey mechanical allodynia; format: in vivo, rat; details: 30 minutes before testing
Method: Animals were prepared for testing, by use of a surgical procedure that induces neuropathic pain in one paw. Male Sprague Dawley rats were purchased from Charles River (Portage, Mich.). Prior to surgery, animals were housed in groups and maintained in a temperature-regulated environment. Following nerve ligation surgery, animals were housed in groups, and had access to food and water ad libitum.
The L5 and L6 spinal nerves of anesthetized rats were tightly ligated in a manner described previously (see Kim and Chung, Pain (1992) vol. 50 pp. 355-363). An incision was made on the dorsal portion of the hip and the muscle was blunt-dissected to reveal the spinal processes. The L6 transverse process was removed, and the left side L5 and L6 spinal nerves were tightly ligated with 5.0 braided silk suture. The wound was cleaned, the membrane sewn with 4.0 dissolvable Vicryl suture and the skin closed with wound clips. The paw affected by the surgical procedure (the left paw) develops an allodynic response, a hypersensitivity to mechanical and other stimuli; neuropathic pain is assessed as an increased sensitivity in the surgically affected (left) allodynic paw compared to the control paw on the right side, and measured by comparing the response of the (left side) allodynic paw to the response of the unaffected right side control paw.
For the assessment of neuropathic pain, mechanical allodynia in the affected paw of animals that had undergone spinal nerve ligation was evaluated using testing with von Frey filaments. As described previously by S. R. Chaplan, et al (“Quantitative assessment of tactile allodynia in the rat paw” J. Neurosci. Meth. (1994) vol. 53 pp. 55-63), two weeks following surgery rats were acclimated to a testing box constructed of plexiglass with a wire mesh floor which allowed access to the plantar surface of the animal's hindpaws. Using an Up-Down method (Dixon, Annu. Rev. Pharmacol. Toxicol. (1980) vol. 20, pp. 441-462; Chaplan et al. “Quantitative assessment of tactile allodynia in the rat paw” J. Neuroscience Methods (1994) vol. 53 pp. 55-63), von Frey filaments of increasing stiffness were applied to the plantar surface of the hindpaws and the withdrawal response of the animals was observed; for the surgically affected paw with neuropathic pain (the left side paw) the baseline level of allodynia has a withdrawal threshold of ≦4 g of pressure. […] The efficacy of the compound in reducing neuropathic pain at different doses is determined by comparing response in the surgery-affected paw versus the response in the control paw. This is expressed as the MPE (maximum percent effect), or 100 times the withdrawal threshold of the allodynic (left side) divided by the withdrawal threshold of the control (right side).

inflammatory pain = experiment: Analgesic effect against inflammatory pain: carrageenan-induced thermal hyperalgesia, hotbox assay; format: in vivo; details: 100 micromole/kg i.p., 90 min after carrageenan, tested 30 min after dosing
Method: To assess the effectiveness of representative compounds of the invention against acute model inflammatory pain, animals were tested in an acute model of carrageenan-induced thermal hyperalgesia (see for example, Honore, et al. Behavioural Brain Research 167 (2006) 355-364; Porreca, et al. Journal of Pharmacology and Experimental Therapeutics (2006) vol. 318 pp. 195-205). Carrageenan was injected into the test paw of the animal, and after 90 minutes, the test drug was administered by intraperitoneal dosing; the effect on thermal hyperalgesia was assessed in a hotbox assay which done 30 minutes after the intraperitoneal dosing of the test drug, and the MPE (maximal percent effect) reported by comparison to the control paw (not injected with carrageenan), according to 100 times the withdrawal latency of the carrageenan injected paw (in seconds) divided by the withdrawal latency of the control (not injected with carrageenan) paw.

[1] = system: pain in a surgical skin incision model; experiment: Analgesic effect in surgical skin incision model, von Frey mechanical allodynia; format: in vivo, rat
Method: This is a surgical skin incision model (Joshi, et al. Pain 123 (2006) 75-82). Animals (rats) were prepared for testing by subjecting them in a surgical procedure carried out under sterile conditions, where the plantaris muscle was elevated and incised longitudinally with the origin and insertion of the muscle remaining intact. The skin was then closed with two mattress sutures (e.g. 5-0 nylon sutures). After surgery, animals were allowed to recover on a warming plate and housed individually in cages with soft bedding. […] Animals were tested for mechanical allodynia using von Frey hair mechanical stimulation 2, 24, and 48 h after surgery as described for the Chung model.

histamine H4 receptor [2] = biological target: T1, histamine H4 receptor (Homo sapiens, UniProt Q9H3N8); experiment: In vitro histamine H4 potency in FLIPR (Ca2+ flux, HEK-293 cells coexpressing Gαqi5); format: cell-based; set-up: expressed in transfected cells; details: Kb for antagonists and inverse agonists, EC50 for partial agonists
In short: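 Fluo-4-loaded cells read on FLIPR for intracellular Ca2+ rise after compound addition, with pre-addition fluorescence subtracted. Peak responses per concentration expressed as % of the full-agonist histamine response. Concentration–response fits give Kb for antagonists/inverse agonists and EC50 for partial agonists.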

histamine H4 receptor [3] = biological target: T1, histamine H4 receptor; experiment: [3H]-histamine competition binding assay on membranes of transfected HEK-293 cells; set-up: expressed in transfected cells; host or cells: HEK-293 cells, transient transfection with pCINeo vector; membranes; details: displacement of [3H]-histamine; Ki by Cheng-Prusoff equation; read-out: Potency
Method: In this assay, membranes were prepared from HEK-293 cells transiently transfected with the pCINeo expression vector harboring the histamine H4 receptor by homogenization of the cells on ice in TE buffer (50 mM Tris-HCl buffer, pH 7.4, containing 5 mM EDTA), 1 mM benzamidine, 2 μg/ml aprotinin, 1 μg/ml leupeptin, and 1 μg/ml pepstatin. The homogenate was centrifuged at 40,000 g for 20 minutes at 4° C. This step was repeated, and the resulting pellet was resuspended in TE buffer. Aliquots were frozen at −70° C. until needed. On the day of assay, membranes were thawed and diluted with TE buffer. Competition radioligand binding assays were performed with increasing concentrations of test compound in the presence of [^3H]-histamine incubated at 25° C. for 1 hour in a total volume of 0.5 ml of 50 mM Tris, 5 mM EDTA, pH 7.4. All binding reactions were terminated by filtration under vacuum onto polyethylenimine (0.3%) presoaked Unifilters (PerkinElmer Life Sciences) or Whatman GF/B filters (Whatman, Clifton, N.J.) followed by three brief washes with 4 ml of ice-cold TE buffer. Bound radiolabel was determined by liquid scintillation counting. For all of the radioligand competition binding assays, IC50 values and Hill slopes were determined by Hill transformation of the data and Ki values were determined by the Cheng-Prusoff equation.

Potency (histamine H4 receptor [2]): 9.3 nM | Ki (histamine H4 receptor [3]): 4 nM
Compound: CNC1CN(c2nc(N)nc3c2CCCc2ccccc2-3)C1 [Example 3, 4-(3-Methylamino-azetidin-1-yl)-6,7-dihydro-5H-benzo[6,7]cyclohepta[1,2-d]pyrimidin-2-ylamine]
MPE (neuropathic pain; 100 micromole/kg i.p.): 36% | MPE (neuropathic pain; 300 micromole/kg i.p.): 78% | MPE (inflammatory pain): 41% | MPE ([1]; 30 micromole/kg i.p.): 21% | MPE ([1]; 100 micromole/kg i.p.): 69%

Source: patent publication US8735411B2, “Macrocyclic benzofused pyrimidine derivatives” (AbbVie Inc., priority 2006, dated 2014)
